# Legend:
# [1] = target: T1, G12D-mutant human KRAS (amino acid residues 1-188) (Homo sapiens, UniProt P01116, G12D); experiment: KRAS Binding Disruption Assay (AlphaScreen; biotinylated KRpep-2d analogue or RAF1-RBD), G12D; details: KRAS G12D; geometric mean; read-out: KRAS GMean IC50 (uM) MUTATION: G12D
# T1 construct: G12D or G12C-mutant human KRAS (amino acid residues 1-188) with FLAG tag; made in house; host or cells: E. coli
# In short: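 Displacement format with mutant KRAS, biotinylated KRpep-2d analogue or RAF1-RBD (5-20 nM each) at pH 7.5 with 5 mM MgCl2.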
# [2] = target: T2, G12V-mutant human KRAS (amino acid residues 1-188) (Homo sapiens, UniProt P01116, G12V); experiment: KRAS Binding Competition Assay (AlphaScreen; biotinylated KRpep-2d analogue), G12V; details: geometric mean, read-out: KRAS GMean IC50 (uM) MUTATION: G12V
# T2 construct: G12V-mutant human KRAS (amino acid residues 1-188) with FLAG tag was purified from E. coli; made in house; host or cells: E. coli
IC50 [1] [µM],IC50 [2] [µM],Structure (SMILES)
0.0001 to 10,0.0001 to 10,"CN1CC[C@@H](NS(=O)(=O)N2[C@@H]3CC[C@H]2CN(c2nc(OCC45CCCN4CCC5)nc4c(F)c(-c5cc(O)cc6ccccc56)ccc24)C3)C1 [P-0282, (1R,5S)-3-(8-fluoro-7-(3-hydroxynaphthalen-1-yl)-2-((tetrahydro-1H-pyrrolizin-7a(5H)-yl)methoxy)quinazolin-4-yl)-N-((R)-1-methylpyrrolidin-3-yl)-3,8-diazabicyclo[3.2.1]octane-8-sulfonamide]"
10 to 100,10 to 100,"CN1CCC[C@H]1COc1nc(N2[C@@H]3CC[C@H]2CNC3)c2ccc(-c3cccc4cccc(CO)c34)cc2n1 [P-0283, (8-(4-((1R,5S)-3,8-diazabicyclo[3.2.1]octan-8-yl)-2-(((S)-1-methylpyrrolidin-2-yl)methoxy)quinazolin-7-yl)naphthalen-1-yl)methanol]"
0.0001 to 10,0.0001 to 10,"O=S(=O)(N[C@@H]1CCNC1)N1[C@@H]2CC[C@H]1CN(c1nc(OCC34CCCN3CCC4)nc3c(F)c(-c4cc(O)cc5ccccc45)ccc13)C2 [P-0284, (1R,5S)-3-(8-fluoro-7-(3-hydroxynaphthalen-1-yl)-2-((tetrahydro-1H-pyrrolizin-7a(5H)-yl)methoxy)quinazolin-4-yl)-N-((R)-pyrrolidin-3-yl)-3,8-diazabicyclo[3.2.1]octane-8-sulfonamide]"
100 to 1000,100 to 1000,"CN1CCC[C@H]1COc1nc(N2[C@@H]3CC[C@H]2CNC3)c2ccc(-c3cccc(O)c3)cc2n1 [P-0285, 3-(4-((1R,5S)-3,8-diazabicyclo[3.2.1]octan-8-yl)-2-(((S)-1-methylpyrrolidin-2-yl)methoxy)quinazolin-7-yl)phenol]"
10 to 100,10 to 100,"Cc1c(N)cccc1-c1ccc2c(N3[C@@H]4CC[C@H]3CNC4)nc(OC[C@@H]3CCCN3C)nc2c1 [P-0286, 3-(4-((1R,5S)-3,8-diazabicyclo[3.2.1]octan-8-yl)-2-(((S)-1-methylpyrrolidin-2-yl)methoxy)quinazolin-7-yl)-2-methylaniline]"
0.0001 to 10,0.0001 to 10,"CN(C)CCCS(=O)(=O)N1[C@@H]2CC[C@H]1CN(c1nc(OCC34CCCN3CCC4)nc3c(F)c(-c4cc(O)cc5ccccc45)ccc13)C2 [P-0287, 4-(4-((1R,5S)-8-((3-(dimethylamino)propyl)sulfonyl)-3,8-diazabicyclo[3.2.1]octan-3-yl)-8-fluoro-2-((tetrahydro-1H-pyrrolizin-7a(5H)-yl)methoxy)quinazolin-7-yl)naphthalen-2-ol]"
10 to 100,10 to 100,"CN1CCC[C@H]1COc1nc(N2[C@@H]3CC[C@H]2CNC3)c2ccc(-c3c(F)ccc(N)c3F)cc2n1 [P-0288, 3-(4-((1R,5S)-3,8-diazabicyclo[3.2.1]octan-8-yl)-2-(((S)-1-methylpyrrolidin-2-yl)methoxy)quinazolin-7-yl)-2,4-difluoroaniline]"
10 to 100,10 to 100,"CN1CCC[C@H]1COc1nc(N2C[C@H]3CC[C@@H](C2)N3)c2ccc(Nc3n[nH]c4ccccc34)cc2n1 [P-0289, 4-((1R,5S)-3,8-diazabicyclo[3.2.1]octan-3-yl)-N-(1H-indazol-3-yl)-2-(((S)-1-methylpyrrolidin-2-yl)methoxy)quinazolin-7-amine]"
10 to 100,10 to 100,"CN1CCC[C@H]1COc1nc(N2[C@@H]3CC[C@H]2CNC3)c2ccc(-c3c(O)cccc3Cl)cc2n1 [P-0290, 2-(4-((1R,5S)-3,8-diazabicyclo[3.2.1]octan-8-yl)-2-(((S)-1-methylpyrrolidin-2-yl)methoxy)quinazolin-7-yl)-3-chlorophenol]"
10 to 100,10 to 100,"Cc1cccc(N)c1-c1ccc2c(N3[C@@H]4CC[C@H]3CNC4)nc(OC[C@@H]3CCCN3C)nc2c1 [P-0291, 2-(4-((1R,5S)-3,8-diazabicyclo[3.2.1]octan-8-yl)-2-(((S)-1-methylpyrrolidin-2-yl)methoxy)quinazolin-7-yl)-3-methylaniline]"
10 to 100,10 to 100,"CN1CCC[C@H]1COc1nc(N2[C@@H]3CC[C@H]2CN(C(=O)CC2SC(=O)NC2=O)C3)c2ccc(-c3cc(O)cc4ccccc34)cc2n1 (stereo partly drawn) [P-0292, 5-(2-((1R,5S)-8-(7-(3-hydroxynaphthalen-1-yl)-2-(((S)-1-methylpyrrolidin-2-yl)methoxy)quinazolin-4-yl)-3,8-diazabicyclo[3.2.1]octan-3-yl)-2-oxoethyl)thiazolidine-2,4-dione]"
0.0001 to 10,10 to 100,"CN1CCC[C@H]1COc1nc(N2C[C@H]3CC[C@@H](C2)N3)c2ccc(-c3c[nH]c4ccccc34)c(F)c2n1 [P-0293, 4-((1R,5S)-3,8-diazabicyclo[3.2.1]octan-3-yl)-8-fluoro-7-(1H-indol-3-yl)-2-(((S)-1-methylpyrrolidin-2-yl)methoxy)quinazoline]"
10 to 100,10 to 100,"CN1CCC[C@H]1COc1nc(N2C[C@H]3CC[C@@H](C2)N3)c2ccc(-c3c[nH]c4cccc(Cl)c34)c(F)c2n1 [P-0294, 4-((1R,5S)-3,8-diazabicyclo[3.2.1]octan-3-yl)-7-(4-chloro-1H-indol-3-yl)-8-fluoro-2-(((S)-1-methylpyrrolidin-2-yl)methoxy)quinazoline]"
0.0001 to 10,100 to 1000,"CN1CCC[C@H]1COc1nc(N2C[C@H]3CC[C@@H](C2)N3)c2ccc(-c3c[nH]c4ccc(Cl)cc34)c(F)c2n1 [P-0295, 4-((1R,5S)-3,8-diazabicyclo[3.2.1]octan-3-yl)-7-(5-chloro-1H-indol-3-yl)-8-fluoro-2-(((S)-1-methylpyrrolidin-2-yl)methoxy)quinazoline]"
0.0001 to 10,10 to 100,"CN1CCC[C@H]1COc1nc(N2CC3CCCC2CN3)c2ccc(-c3cc(O)cc4ccccc34)c(F)c2n1 (stereo partly drawn) [P-0296, 4-(4-(6,8-diazabicyclo[3.2.2]nonan-6-yl)-8-fluoro-2-(((S)-1-methylpyrrolidin-2-yl)methoxy)quinazolin-7-yl)naphthalen-2-ol]"
0.0001 to 10,0.0001 to 10,"CN1CC[C@@H](NC(=O)N2CC3CCCC2CN3c2nc(OC[C@@H]3CCCN3C)nc3c(F)c(-c4cc(O)cc5ccccc45)ccc23)C1 (stereo partly drawn) [P-0297, 8-(8-fluoro-7-(3-hydroxynaphthalen-1-yl)-2-(((S)-1-methylpyrrolidin-2-yl)methoxy)quinazolin-4-yl)-N-((R)-1-methylpyrrolidin-3-yl)-6,8-diazabicyclo[3.2.2]nonane-6-carboxamide]"
0.0001 to 10,0.0001 to 10,"CN1CCC[C@H]1COc1nc(N2CC3CCCC2CN3C(=O)NC2CCOC2)c2ccc(-c3cc(O)cc4ccccc34)c(F)c2n1 (stereo partly drawn) [P-0298, 8-(8-fluoro-7-(3-hydroxynaphthalen-1-yl)-2-(((S)-1-methylpyrrolidin-2-yl)methoxy)quinazolin-4-yl)-N-(tetrahydrofuran-3-yl)-6,8-diazabicyclo[3.2.2]nonane-6-carboxamide]"
10 to 100,10 to 100,"CN1CCC[C@H]1COc1nc(N2[C@@H]3CC[C@H]2CNC3)c2ccc(-c3c(N)cccc3Cl)cc2n1 [P-0300, 2-(4-((1R,5S)-3,8-diazabicyclo[3.2.1]octan-8-yl)-2-(((S)-1-methylpyrrolidin-2-yl)methoxy)quinazolin-7-yl)-3-chloroaniline]"
0.0001 to 10,0.0001 to 10,"Oc1cc(-c2ccc3c(N4[C@@H]5CC[C@H]4CNC5)nc(Cc4ccncc4)nc3c2)c2ccccc2c1 [P-0301, 4-(4-((1R,5S)-3,8-diazabicyclo[3.2.1]octan-8-yl)-2-(pyridin-4-ylmethyl)quinazolin-7-yl)naphthalen-2-ol]"
0.0001 to 10,10 to 100,"CN1CCC[C@H]1COc1nc(N2C[C@H]3CC[C@@H](C2)N3)c2cc(F)c(-c3c(O)cccc3F)c(F)c2n1 [P-0302, 2-(4-((1R,5S)-3,8-diazabicyclo[3.2.1]octan-3-yl)-6,8-difluoro-2-(((S)-1-methylpyrrolidin-2-yl)methoxy)quinazolin-7-yl)-3-fluorophenol]"
0.0001 to 10,10 to 100,"Cc1ccc2[nH]ncc2c1-c1c(F)cc2c(N3C[C@H]4CC[C@@H](C3)N4)nc(OC[C@@H]3CCCN3C)nc2c1F [P-0303, 4-((1R,5S)-3,8-diazabicyclo[3.2.1]octan-3-yl)-6,8-difluoro-7-(5-methyl-1H-indazol-4-yl)-2-(((S)-1-methylpyrrolidin-2-yl)methoxy)quinazoline]"
10 to 100,10 to 100,"CN1CCC[C@H]1COc1nc(N2[C@@H]3CC[C@H]2CNC3)c2ccc(-c3cc(CO)cc4ccccc34)cc2n1 [P-0304, (4-(4-((1R,5S)-3,8-diazabicyclo[3.2.1]octan-8-yl)-2-(((S)-1-methylpyrrolidin-2-yl)methoxy)quinazolin-7-yl)naphthalen-2-yl)methanol]"
0.0001 to 10,10 to 100,"CN1CCC[C@H]1COc1nc(N2C[C@H]3CC[C@@H](C2)N3)c2cc(F)c(N3CCNc4ccccc43)c(F)c2n1 [P-0305, 4-((1R,5S)-3,8-diazabicyclo[3.2.1]octan-3-yl)-7-(3,4-dihydroquinoxalin-1(2H)-yl)-6,8-difluoro-2-(((S)-1-methylpyrrolidin-2-yl)methoxy)quinazoline]"
0.0001 to 10,10 to 100,"CN1CCC[C@H]1COc1nc(N2C[C@H]3CC[C@@H](C2)N3)c2ccc(N3CCNc4ccccc43)c(F)c2n1 [P-0306, 4-((1R,5S)-3,8-diazabicyclo[3.2.1]octan-3-yl)-7-(3,4-dihydroquinoxalin-1(2H)-yl)-8-fluoro-2-(((S)-1-methylpyrrolidin-2-yl)methoxy)quinazoline]"
